Laboratory results published in publication PMC11443480, “Natural Rubrolides and Their Synthetic Congeners as Inhibitors of the Photosynthetic Electron Transport Chain” (Journal of Natural Products, 2024).
Where “and” joins values, the source holds several entries; their conditions need not be identical. Identical values can stand only once. Entries after “also recorded” stand apart in the source; their conditions may differ.

Columns and labels:
[1] = system: photosynthetic electron transport chain in isolated spinach thylakoids; experiment: Hill reaction: light-dependent ferricyanide reduction in isolated spinach thylakoids (basal); assay type: biochemical, spinach (Spinacea oleracea L.); conditions: basal conditions, 0.05–100 μM tested, triplicate; for IC50: read-out: IC50, inhibition by 50% of the light-dependent ferricyanide reduction
Experimental: The ability of natural rubrolides and their synthetic analogues to interfere with the chloroplast electron transport chain was evaluated by measuring the Hill reaction in thylakoid membranes isolated from spinach leaves. The results were summarized as the concentrations able to inhibit by 50% the rate measured in untreated controls (IC50, Table 2).
Thylakoid membranes were isolated from spinach (Spinacea oleracea L.) leaves. Plant material was resuspended in 5 mL g^–1 of ice-cold 20 mM Tricine-NaOH buffer (pH 8.0) containing 10 mM NaCl, 5 mM MgCl2, and 0.4 M sucrose and homogenized for 30 s in a blender at maximal speed. The homogenate was filtered through surgical gauze, and the filtrate was centrifuged at 4 °C for 1 min at 500g; the supernatant was further centrifuged for 10 min at 1,500g. Pelleted chloroplasts were osmotically swollen by resuspension in a sucrose-lacking buffer. The suspension was immediately diluted 1:1 with sucrose-containing buffer, kept on ice in the dark, and used within a few hours from the preparation. Chlorophyll content was calculated after diluting with 80% (v/v) acetone on the basis of Arnon’s formula. The basal rate of photosynthetic electron transport was measured by following light-driven ferricyanide reduction. Membrane aliquots corresponding to 3 μg of chlorophyll were incubated at 24 °C in wells of 96-well-plates in a final volume of 200 μL in the presence of 20 mM Tricine-NaOH buffer (pH 8.0), 10 mM NaCl, 5 mM MgCl2, 0.2 M sucrose, and 2 mM K3Fe(CN)6. The assay was initiated by exposure to saturating light (600 μmol m^–2 s^–1), and the rate of ferricyanide reduction was measured at 30 s intervals for 10 min using a Ledetect 96 plate reader (Labexim, Lengau, Austria) equipped with a LED plugin at 420 nm. Activity was calculated over the linear portion of the curve from a molar extinction coefficient of 1,000 M^–1 cm^–1. Rubrolides were dissolved in DMSO to obtain 10 mM solutions, which were then diluted with H2O, as appropriate. Their effect upon the Hill reaction was evaluated in parallel assays in which the compounds were added to the reaction mixture to concentrations ranging from 0.05 to 100 μM. Each dose was carried out at least in triplicate, and results were expressed as percentage of untreated controls. Mean values ± SE over replicates are reported. The concentrations causing 50% inhibition (IC50) and their confidence limits were estimated by nonlinear regression analysis using Prism 6 for Windows, version 6.03 (GraphPad Software).

[2] = system: photosynthetic electron transport chain in isolated spinach chloroplast; experiment: Ferricyanide reduction under uncoupling and phosphorylating conditions; assay type: biochemical, spinach (Spinacea oleracea L.); conditions: 10^–7 to 10^–5 M range
Experimental: Diuron was included as a positive control.
(§1) Phosphorylating electron flow was evaluated under the same conditions but in the presence of 0.5 mM ADP and 2 mM K2HPO4. Uncoupled activity was measured following the addition of 2 mM NH4Cl to the basal reaction mixture containing aliquots of membrane preparations corresponding to 1.5 μg of chlorophyll. To evaluate the effect on PSII only, uncoupled activity was blocked by the addition of the cytochrome b6f inhibitor 2,5-dibromo-6-isopropyl-3-methyl-1,4-benzoquinone (DBMIB) at […], and an electronic transfer from H2O to ferricyanide that excludes PSI (H2O → PSII → D1 protein → phenylendiamine → ferricyanide) was restored through the addition of 0.1 mM phenylenediamine. In this case, due to the lower reduction rate, aliquots of membrane preparations corresponding to 6 μg of chlorophyll were used.

PSII = target: T1, PSII (Spinacia oleracea, UniProt P69560); experiment: Partial electron flow involving PSII only (excluding PSI); assay type: biochemical, spinach (Spinacea oleracea L.); conditions: DBMIB-blocked, phenylenediamine-restored flow excluding PSI
T1 construct: Thylakoid membranes were isolated from spinach (Spinacea oleracea L.) leaves; from tissue; host or cells: spinach leaves (thylakoid membranes)
Source text: An interference with the cytochrome b6f complex cannot be completely excluded, but this difference could simply rely on the experimental conditions employed. To evaluate the effect on PSII only, uncoupled activity is blocked by the addition of the cytochrome b6f inhibitor 2,5-dibromo-6-isopropyl-3-methyl-1,4-benzoquinone, and an electronic transfer from H2O to ferricyanide that excludes PSI is restored through addition of phenylenediamine. […] A similar effect was previously noticed also in the case of other inhibitors.[10b],[10e],[10j]
as §1

Raphanus sativus = experiment: Growth of Raphanus sativus seedlings sown in the presence of the compound; assay type: in vivo, Raphanus sativus cv Scarlet Champion; conditions: 10 μM in agarized medium; growth measured at three-leaf stage, 3 weeks after sowing
Experimental: The ability of these compounds to interfere with plant growth was evaluated by measuring the growth of Raphanus sativus seedlings that had been sown in the presence of a given rubrolide. […] In that case, compound 5 was also found inhibitory, but at a 20-fold higher concentration (200 μM).
Figure 1 Effect of natural rubrolides 1–7 on the growth of the model plant Raphanus sativus. Seeds were sown in the presence of a given compound at a concentration of 10 μM. Controls received the same volume of DMSO (0.1%) used to dissolve the rubrolides. The commercial herbicide hexazinone was also included, as a positive control. Growth was measured when untreated plants reached the three-leaf stage, 3 weeks after sowing. Results were analyzed using Prism 6 for Windows by means of the Kolmogorov–Smirnov normality test (P = 0.05), and then subjected to 1-way ANOVA. […] Results were plotted as a box and whiskers plot showing 10–90th percentiles.
Seeds of Raphanus sativus cv Scarlet Champion were surface sterilized by treatment with ethanol for 4 min and with 3% NaClO containing 0.04% Triton X-100 for 8 min under vacuum. […] The fresh biomass of each seedling was measured at that point by a destructive harvest. […]

rapeseed = system: rapeseed; design: method as in PMID 38695089; conditions: cited from earlier work; for Inhibition of rapeseed growth: greenhouse treatments

Compound | IC50 [1] | melting point | also measured
O=C1O/C(=C\c2cc(Br)c(O)c(Br)c2)C(c2cc(Br)c(O)c(Br)c2)=C1Cl [Compound 1, rubrolide B] | 8.62 ± 1.89 µM |  | 
O=C1O/C(=C\c2ccc(O)c(Br)c2)C(c2ccc(O)c(Br)c2)=C1Cl [Compound 3, rubrolide K] | 8 ± 2.05 µM |  | 
O=C1O/C(=C\c2ccc(O)c(Br)c2)C(c2cc(Br)c(O)c(Br)c2)=C1Cl [Compound 4, rubrolide O] | 4.37 ± 0.8 µM |  | Effect on ferricyanide reduction under uncoupling and phosphorylating conditions [2]: progressive reduction of the activity; Effect on partial electron flow involving PSII only versus whole transport chain (PSII): able to inhibit the electron transfer from PSII to the cytochrome b6f complex
O=C1C=C(c2ccc(O)cc2)/C(=C/c2ccc(O)cc2)O1 [Compound 5, rubrolide E] |  |  | Effect on growth of Raphanus sativus seedlings (phytotoxicity) (Raphanus sativus): ineffective; IC50, inhibition by 50% of the light-dependent ferricyanide reduction [1]: ineffective; also recorded: lack activity; also recorded: n.e. ^a; Inhibition of rapeseed growth at 200 μM (rapeseed; 200 μM (20-fold higher concentration)): inhibitory; Inhibition of rapeseed growth (rapeseed): inhibit rapeseed growth
COc1ccc(/C=C2\OC(=O)C=C2c2ccc(O)cc2)cc1 [Compound 6, rubrolide F] | > 25 µM and 29.3 µM |  | Inhibition of rapeseed growth (rapeseed): inhibit rapeseed growth
COc1ccc(/C=C2\OC(=O)C(Cl)=C2c2ccccc2)cc1 [Compound 12] | 257 ± 273 µM |  | 
O=C1O/C(=C\c2ccc(F)cc2Cl)C(c2ccccc2)=C1Cl [Compound 13] | 35.9 ± 7.7 µM | 145.3 to 147 °C | 
COc1ccc(Cl)cc1C1=C(Cl)C(=O)O/C1=C\c1ccc2c(c1)OCO2 [Compound 15] |  | 134.9 to 136.2 °C | 
O=C1O/C(=C\c2ccc(-c3ccccc3)s2)C(c2ccc(F)cc2)=C1Cl [Compound 16] | 266 ± 272 µM | 218.3 to 219.8 °C (dec.) | 
O=C1O/C(=C\c2ccnc(Br)c2)C(c2ccc(F)cc2)=C1Cl [Compound 17] |  | 150.3 to 152.8 °C | IC50, inhibition by 50% of the light-dependent ferricyanide reduction [1]: n.e. ^a
COc1ccc(C2=C(Cl)C(=O)O/C2=C\c2ccc(OC)c(Br)c2)cc1Cl [Compound 19] |  |  | IC50, inhibition by 50% of the light-dependent ferricyanide reduction [1]: no activity and n.e.
O=C1O/C(=C\c2ccc(O)c(Br)c2)C(c2ccc(O)c(Cl)c2)=C1Cl [Compound 20, (Z)-5-(3-Bromo-4-hydroxybenzylidene)-3-chloro-4-(3-chloro-4-hydroxyphenyl)furan-2(5H)-one] | 4.97 ± 1.05 µM | 210 to 213 °C (dec.) | Effect on ferricyanide reduction under uncoupling and phosphorylating conditions [2]: progressive reduction of the activity; Effect on partial electron flow involving PSII only versus whole transport chain (PSII): able to inhibit the electron transfer from PSII to the cytochrome b6f complex
CN(C)C(=O)Nc1ccc(Cl)c(Cl)c1 [Diuron, reference compound] | 0.27 ± 0.01 µM |  | Effect on partial electron flow involving PSII only versus whole transport chain (PSII): very similar effectiveness
rubrolide C |  |  | Inhibition of rapeseed growth (rapeseed): inhibit rapeseed growth
rubrolide I [Compound 2] | 5.54 ± 0.98 µM |  | Effect on ferricyanide reduction under uncoupling and phosphorylating conditions [2]: progressive reduction of the activity; Effect on partial electron flow involving PSII only versus whole transport chain (PSII): able to inhibit the electron transfer from PSII to the cytochrome b6f complex
